For one data set, the system named is human hepatoma (QGY). Kind of data set: Growth of human hepatoma (QGY) in nude mice. It is filed as in vivo, human (nude mouse). As to conditions: 30 mg/kg ip daily 7 days. On the procedure:
Hepatoma (QGY) tissues growing luxuriantly were homogenized in physical saline (1:4) and prepared as a suspension. Each nude mouse was inoculated subcutaneously with 0.2 ml of the suspension at its armpit. The nude mice were divided into groups at random the next day. The doses of NLEJ emulsion were 25 ml/kg, 12.5 ml/kg and 6.25 ml/kg. The emulsion was administrated intravenously at the tail of the nude mouse every day for 10 days. One group of mice were administered with cyclophosphamide (CTX) of a dose of 30 mg/kg intraperitoneally every day for 7 days. The nude mice of the control group were administered with a similar emulsion just absent the NLEJ (blank emulsion) at a dose of 25 ml/kg intravenously at the tail of the nude mouse every day for 10 days. Tumor tissues of all nude mice were sampled and weighed 30 days after inoculating.

The subject of data set [1] is leukocyte. Nature of the data set: Protection on decrease of leukocyte induced by cyclophosphamide chemotherapy. It is filed as in vivo, Swiss mice. The conditions noted are these: CTX 45 mg/kg ip × 1, 5, 9. On the procedure: (§1) 80 Swiss mice were divided into eight groups at random, were administered with cyclophosphamide at 45 mg/kg ip×3 (second, sixth and tenth), or harringtonine (HRTN) at 1 mg/kg ip×3 (second, sixth and tenth). To each of two of the medicine groups were administered NLEJ emulsion at the same time, at doses of 2.4 ml/kg and 6.25 ml/kg iv×7 (every day). At the beginning and on the fourth day of each administration, blood was sampled from the angle of each mouse's eye, and leukocytes of the blood were counted.

Data set [2] deals with Walaer carcinosarcoma (solid) W256. Kind of data set: Anti-tumor effect on Walaer carcinosarcoma (solid) W256 in vivo. More on the design: species or system rat. The procedure: Ascites Walaer carcinosarcoma (solid) W256 tissues growing luxuriantly were digested to be a cell suspension. The cell suspension was regulated to have a 1-2×10^7 /ml cell density. 0.2 ml of the suspension was inoculated under the skin of armpit of each rat. The rats were divided into groups at random the next day and were administered with doses of NLEJ emulsion of 20 ml/kg, 10 ml/kg, 5 ml/kg iv×10 (qd), and doses of […], the doses of cyclophosphamide were 30 mg/kg iv×7 (qd), mg/kg iv×2 (third and fifth). Tumor tissues from all treatments were sampled and weighed to calculate tumor inhibition ratios 14 days after inoculating.

A further data set relates to sarcoma (S-180). Kind of data set: Anti-tumor effect on sarcoma (S-180) in vivo. More on the design: species or system mice. On the procedure: Sarcoma (S-180) tissues growing luxuriantly were prepared to be a cell suspension with physical saline 1:3(w/v). Mice were divided into groups at random the next day and were administered with doses of NLEJ emulsion of 25 ml/kg iv×7 (qd), doses of cyclophosphamide of 30 mg/kg ip×2 (second and fourth), doses of mitoxantrone (DHAD) of 2 mg/kg ip×2 (second and fourth), and doses of mitomycin of 1.5 mg/kg ip×2 (second and fourth). Tumor tissues from all treatments were sampled and weighed to calculate tumor inhibition ratios 14 days after inoculating.

The subject of a further data set is melanoma (B16). Nature of the data set: Metastasis of melanoma (B16) in lung in vivo. Further details: species or system C57BL/6 mouse. The conditions noted are these: 100 mg/kg ip × 2 (3, 5). On the procedure:
Melanoma B16 tissues growing at logarithmic stage were digested with 0.15% trypsin, and 0.2 ml suspension of 2.5×10^5 cells/ml in RPMI 1640 medium from the tissues was inoculated intravenously into the tail of each C57BL/6 mouse. Mice were divided into groups at random 3 days after inoculating and were administered different emulsions. Mice were killed 21 days after inoculating, and metastasized colonies of melanoma in mouse's lung were counted to calculate the inhibition ratio and compare the different effects of different administrations of NLEJ emulsion on metastasis of malanoma in lung. 100 mg/kg cyclophosphamide (CTX) was administered in the same way to compare with NLEJ emulsion.

Data set [3] deals with human small cell lung cancer (SPC). Kind of data set: Growth of human small cell lung cancer (SPC) in nude mice. Format: in vivo, human (nude mouse). The conditions noted are these: 40 mg/kg iv×10 (qd). On the procedure: SPC tumor tissues growing luxuriantly were cut into pieces of 2 mm, one of the pieces was inoculated under the skin of the armpit of each nude mouse. Nude mice were divided into groups at random the next day and one group was administered with the NLEJ emulsion at a dose of 25 ml/kg iv×10 (qd), one group of mice was administered with dacarbazine (DTIC) at a dose of 40 mg/kg iv×10 (qd), and the nude mice of the control group were administered with blank emulsion at a dose of 25 ml/kg iv×10 (qd). Tumor tissues of all nude mice were sampled and weighed 30 days after inoculating.

For data set [4], the system named is leukocyte. Nature of the data set: Protection on decrease of leukocyte induced by harringtonine chemotherapy. Format: in vivo, Swiss mice. As to conditions: HRTN 1 mg/kg ip × 1, 5, 9. On the procedure: as §1
The test system of data set [5] is mouse Ehrlich ascites tumor. As to conditions: cited from earlier work.

The text below walks through data of patent US5444089A, “Neutral lipids from endosperm of Job's tears” (Li; Da P., priority 1992, dated 1995).

The structures appear in SMILES notation.

Consider `O=P1(N(CCCl)CCCl)NCCCO1` (stereo not shown) [CTX, cyclophosphamide], for which the Inhibition (%) in the data set with human hepatoma (QGY) is 91.00%; in data set [2] (10 mg iv × 2), 38.58%; in data set [2] (30 mg iv × 7) it was 88.13%; in the data set on sarcoma (S-180) (30 mg/kg ip × 2 (1, 3)) it was 39.4%; in the data set with melanoma (B16) (Table 4) it was 95.90%; in the data set with melanoma (B16) (Table 5), 98.67%. The “Inhibition (%)” value with melanoma (B16) (Table 6) is 100%. This compound also registered a Tumor with human hepatoma (QGY) of 0.28 ± 0.08 g. Also, the Leucocyte number with leukocyte [1] (time 0) was 62 × 100/mm^3; in the data set with leukocyte [1] (time 3) it was 49 × 100/mm^3; with leukocyte [1] (time 6) it was 45 × 100/mm^3; in the data set on leukocyte [1] (time 9), 41 × 100/mm^3; in the data set on leukocyte [1] (time 12), 41 × 100/mm^3; in the data set on leukocyte [1] (time 15) it was 42 × 100/mm^3. The Leucocyte number in the data set on leukocyte [1] (time 18) is 45 × 100/mm^3; with leukocyte [1] (time 21) it was 47 × 100/mm^3; in the data set on leukocyte [1] (time 24), 49 × 100/mm^3. In addition, the “Weight (tumor)” value was 2.07 ± 1.11 g in data set [2] (10 mg iv × 2) and 0.4 ± 0.15 g in data set [2] (30 mg iv × 7). Further, the “Colony No.” value in the data set on melanoma (B16) (Table 4) is recorded as 18.80 ± 8.50; in the data set with melanoma (B16) (Table 5), 8.0 ± 6.22; with melanoma (B16) (Table 6), 0.

Consider `O=C1c2c(O)ccc(O)c2C(=O)c2c(NCCNCCO)ccc(NCCNCCO)c21` [DHAD, mitoxantrone], for which the “Inhibition (%)” value with sarcoma (S-180) (2 mg/kg ip × 2 (1, 3)) came to 50%.

As to `CN(C)/N=N/c1[nH]cnc1C(N)=O` [DTIC, dacarbazine], in data set [3], the Inhibition (%) was determined as 94.94% and the Tumor is listed as 0.18 ± 0.04.

For the compound `COC(=O)C[C@](O)(CCC(C)(C)O)C(=O)O[C@@H]1C(OC)=C[C@]23CCCN2CCc2cc4c(cc2[C@H]13)OCO4` [HRTN, harringtonine], the Leucocyte number was 60 × 100/mm^3 in the data set on leukocyte [4] (time 0); 75 × 100/mm^3 in the data set with leukocyte [4] (time 3); 65 × 100/mm^3 in the data set on leukocyte [4] (time 6); 50 × 100/mm^3 in the data set on leukocyte [4] (time 9); 44 × 100/mm^3 in the data set on leukocyte [4] (time 12); 43 × 100/mm^3 in the data set with leukocyte [4] (time 15). In addition, the Leucocyte number is recorded as 49 × 100/mm^3 in the data set with leukocyte [4] (time 18), 53 × 100/mm^3 with leukocyte [4] (time 21) and 56 × 100/mm^3 in the data set with leukocyte [4] (time 24).

In the case of `CO[C@@]12[C@H](COC(N)=O)C3=C(C(=O)C(C)=C(N)C3=O)N1C[C@@H]1N[C@@H]12` [Mitomycin, mitomycin], in the data set on sarcoma (S-180) (1.5 mg/kg ip × 2 (1, 3)), the “Inhibition (%)” value was found to be 39.4%.

For `CCCCCC/C=C\CCCCCCCC(=O)O[C@H](C)[C@H](C)OC(=O)CCCCCCCCC/C=C/CCCCCC` [coixenolide], the “Growth of mouse Ehrlich ascites tumor” value in data set [5] (Ukita 1961) is “inhibit the growth”. Also, in data set [5] (pure compound), the Anti-tumor activity entry was “strong anti-tumor activity”.
